Values of other authors, collected in PubChem BioAssay AID1259409 (Chemical Carcinogenesis Research Information System (CCRIS), 2018).

Test system: rodent chemically induced tumor inhibition, incidence and multiplicity
Experiment: CCRIS tumor inhibitor studies
Settings: Carcinogen: 2,2'-DIHYDROXY-DI-N-PROPYLNITROSAMINE, 53609-64-6, 13147-25-6, Carcinogen: 2,2'-DIHYDROXY-DI-N-PROPYLNITROSAMINE, 53609-64-6, 13147-25-6, Dose [Inhibitor]: 0, Route [Inhibitor]: ORAL, Species: RAT, Strain/Sex: F344/MALE, Promoter: NONE USED

SMILES: O=C(OC[C@@H]1O[C@H](OC(=O)c2cc(O)c(O)c(OC(=O)c3cc(O)c(O)c(O)c3)c2)[C@@H](OC(=O)c2cc(O)c(O)c(OC(=O)c3cc(O)c(O)c(O)c3)c2)[C@H](OC(=O)c2cc(O)c(O)c(OC(=O)c3cc(O)c(O)c(O)c3)c2)[C@H]1OC(=O)c1cc(O)c(O)c(OC(=O)c2cc(O)c(O)c(O)c2)c1)c1cc(O)c(O)c(OC(=O)c2cc(O)c(O)c(O)c2)c1
- tumour outcome (control, treated, inhibition, significance) (N-ETHYL-N-HYDROXYETHYL- NITROSAMINE, 3,2'-DIMETHYL-4-, N-ETHYL-N-HYDROXYETHYL- NITROSAMINE, 3,2'-DIMETHYL-4-, 1% IN DIET BEGINNING 1 WK POST LAST CARCINOGEN DOSE AND CONTINUING FOR 32 WK (STUDY DURATION: 36 WK), Target Tissue: Type of Lesion: LARGE INTESTINE: ADENOMA, Dose [Carcinogen]: 1000 MG/KG IP DHPN 2X, 1500 MG/KG GAV EHEN 2X AND 75 MG/KG SC DMAB GIVEN OVER THE INITIAL 3 WK PERIOD AT 3-4 D INTERVALS): 7/14 (50%), 2/12 (17%), 66%, not calculated
- tumour outcome (control, treated, inhibition, significance) (N-ETHYL-N-HYDROXYETHYL- NITROSAMINE, 3,2'-DIMETHYL-4-, N-ETHYL-N-HYDROXYETHYL- NITROSAMINE, 3,2'-DIMETHYL-4-, 1% IN DIET BEGINNING 1 WK POST LAST CARCINOGEN DOSE AND CONTINUING FOR 32 WK (STUDY DURATION: 36 WK), Target Tissue: Type of Lesion: LARGE INTESTINE: CARCINOMA, Dose [Carcinogen]: 1000 MG/KG IP DHPN 2X, 1500 MG/KG GAV EHEN 2X AND 75 MG/KG SC DMAB 3X GIVEN OVER THE INITIAL 3 WK AT 3-4 D INTERVALS): 3/14 (21%), 1/12 (8%), 62%, not calculated
- tumour outcome (control, treated, inhibition, significance) (N-ETHYL-N-HYDROXYETHYL- NITROSAMINE, 3,2'-DIMETHYL-4-, N-ETHYL-N-HYDROXYETHYL- NITROSAMINE, 3,2'-DIMETHYL-4-, 1% IN DIET BEGINNING 1 WK POST LAST CARCINOGEN DOSE AND CONTINUING FOR 32 WK (STUDY DURATION: 36 WK), Target Tissue: Type of Lesion: LUNG: ADENOMA, Dose [Carcinogen]: 1000 MG/KG IP DHPN 2X, 1500 MG/KG GAV EHEN 2X AND 75 MG/KG SC DMAB 3X GIVEN OVER THE INITIAL 3 WK AT 3-4 D INTERVALS): 7/14 (50%), 7/12 (58%), -16%, not calculated
- tumour outcome (control, treated, inhibition, significance) (N-ETHYL-N-HYDROXYETHYL- NITROSAMINE, 3,2'-DIMETHYL-4-, N-ETHYL-N-HYDROXYETHYL- NITROSAMINE, 3,2'-DIMETHYL-4-, 1% IN DIET BEGINNING 1 WK POST LAST CARCINOGEN DOSE AND CONTINUING FOR 32 WK (STUDY DURATION: 36 WK), Target Tissue: Type of Lesion: LUNG: CARCINOMA, Dose [Carcinogen]: 1000 MG/KG IP DHPN 2X, 1500 MG/KG GAV EHEN 2X AND 75 MG/KG SC DMAB 3X GIVEN OVER THE INITIAL 3 WK PERIOD AT 3-4 D INTERV): 1/14 (7%), 2/12 (17%), -143%, not calculated
- tumour outcome (control, treated, inhibition, significance) (N-ETHYL-N-HYDROXYETHYL- NITROSAMINE, 3,2'-DIMETHYL-4-, N-ETHYL-N-HYDROXYETHYL- NITROSAMINE, 3,2'-DIMETHYL-4-, 1% IN DIET BEGINNING 1 WK POST LAST CARCINOGEN DOSE AND CONTINUING FOR 32 WK (STUDY DURATION: 36 WK), Target Tissue: Type of Lesion: URINARY BLADDER: CARCINOMA, Dose [Carcinogen]: 1000 MG/KG IP DHPN 2X, 1500 MG/KG GAV EHEN 2X AND 75 MG/KG SC DMAB 3X GIVEN OVER THE INITIAL 3 WK PERIOD AT 3-4 D INTERV): 1/14 (7%), 2/12 (17%), -143%, not calculated
- outcome (N-ETHYL-N-HYDROXYETHYL- NITROSAMINE, 3,2'-DIMETHYL-4-, N-ETHYL-N-HYDROXYETHYL- NITROSAMINE, 3,2'-DIMETHYL-4-, 1% IN DIET BEGINNING 1 WK POST LAST CARCINOGEN DOSE AND CONTINUING FOR 32 WK (STUDY DURATION: 36 WK), Target Tissue: Type of Lesion: URINARY BLADDER: PAPILLOMA, Dose [Carcinogen]: 1000 MG/KG IP DHPN 2X, 1500 MG/KG GAV EHEN 2X AND 75 MG/KG SC DMAB 3X GIVEN OVER THE INITIAL 3 WK PERIOD AT 3-4 D INTERV): 0/14 (0%), 3/12 (25%), -100%, not calculated
- tumour outcome (control, treated, inhibition, significance) (N-ETHYL-N-HYDROXYETHYL- NITROSAMINE, 3,2-DIMETHYL-4-A, N-ETHYL-N-HYDROXYETHYL- NITROSAMINE, 3,2-DIMETHYL-4-A, 1% IN DIET BEGINNING 1 WK POST LAST CARCINOGEN DOSE AND CONTINUING FOR 32 WK (STUDY DURATION: 36 WK), Target Tissue: Type of Lesion: LIVER: HEPATOCELLULAR CARCINOMA, Dose [Carcinogen]: 100 MG/KG IP DHPN 2X, 1500 MG/KG GAV EHEN 2X AND 75 MG/KG SC DMAB 3X GIVEN OVER THE INITIAL 3 WK PERIOD AT 3-4 D INTERVA): 6/14 (43%), 3/12 (25%), 42%, not calculated
- tumour outcome (control, treated, inhibition, significance) (N-ETHYL-N-HYDROXYETHYLNITROSAMINE, 3,2'-DIMETHYL-1,4-, N-ETHYL-N-HYDROXYETHYLNITROSAMINE, 3,2'-DIMETHYL-1,4-, 1% IN DIET FOR 4 WK BEGINNING 1 D PRIOR TO FIRST CARCINOGEN DOSE (STUDY DURATION: 36 WK), Target Tissue: Type of Lesion: KIDNEY: ADENOMA, Dose [Carcinogen]: 1000 MG/KG BW DHPN TWICE, 1500 MG/KG THEN TWICE, 75 MG/KG BW DMAB 3 TIMES, SEQUENTIALLY OVER 3 WK): 6/10 (60%), 6/12 (50%), 17%, not significant
- tumour outcome (control, treated, inhibition, significance) (N-ETHYL-N-HYDROXYETHYLNITROSAMINE, 3,2'-DIMETHYL-1,4-, N-ETHYL-N-HYDROXYETHYLNITROSAMINE, 3,2'-DIMETHYL-1,4-, 1% IN DIET FOR 4 WK BEGINNING 1 D PRIOR TO FIRST CARCINOGEN DOSE (STUDY DURATION: 36 WK), Target Tissue: Type of Lesion: LUNG: ADENOMA, Dose [Carcinogen]: 1000 MG/KG BW DHPN TWICE, 1500 MG/KG THEN TWICE, 75 MG/KG BW DMAB 3 TIMES, SEQUENTIALLY OVER 3 WK): 5/10 (50%), 7/12 (58%), -16%, not significant
- tumour outcome (control, treated, inhibition, significance) (N-ETHYL-N-HYDROXYETHYLNITROSAMINE, 3,2'-DIMETHYL-4-AMINO-, N-ETHYL-N-HYDROXYETHYLNITROSAMINE, 3,2'-DIMETHYL-4-AMINO-, 1% IN DIET FOR 32 WK BEGINNING 1 WK POST CARCINOGEN TREATMENT (STUDY DURATION: 36 WK), Target Tissue: Type of Lesion: KIDNEY: NEPHROBLASTOMA, Dose [Carcinogen]: 1000 MG/KG BW DHPN TWICE, 1500 MG/KG BW THEN TWICE, 75 MG/KG BW DMAB 3 TIMES ADMINISTERED OVER FIRST 3 WK): 2/14 (14%), 0/12 (0%), 100%, not significant
